The source of these data is US20090186942A1, “NOVEL NUTRACEUTICAL AND PHARMACEUTICAL COMPOSITIONS AND USE THEREOF FOR THE TREATMENT, CO-TREATMENT OR PREVENTION OF INFLAMMATORY DISORDERS” (priority 2006, published 2009).

By IC50 is commonly meant the concentration needed to halve the response being measured.

A value given as a limit tells only on which side of the number the result lay.

What all share (assay type): cell-based
Test [1] concerns murine macrophage indicator cell line, RAW267.4. As to the kind of experiment: Inhibition of nitric oxide production in LPS-stimulated macrophages (Griess reaction). The conditions noted are these: single substances, RAW267.4 cells, LPS 1 μg/ml, 24 hours. Here is the method:
(§1) Pure substances were then further assayed in vitro in cellular cell systems. The inhibition of the synthesis of nitric oxide and/or pro-inflammatory prostaglandins (PG) by the compounds was measured. PGE2 plays a critical role in the inflammation process, while nitric oxide (NO) is a hallmark of inflammation in various chronic inflammatory diseases including various forms of arthritis, gastro-intestinal diseases and metabolic syndrome X. The effects of compounds on the inflammatory response were tested in cellular assays using a murine macrophage indicator cell line, RAW267.4. The cells were purchased from ATCC (Manassas, Va., USA) and cultured in DMEM containing streptomycin/penicillin, non-essential amino acids and 10% fetal calf serum (FCS). In order to test a large range of concentration of compounds, cells (˜50,000/well) were seeded into flat-bottomed microtiter plates and cultured for one day. Cells were then starved in complete medium containing 0.25% FCS (D-025). After overnight culture, medium was removed and replaced by 100 μL of D-025 containing the test compounds at twice the final concentration. Subsequently, 100 μL of D-025 containing 2 μg/ml LPS was added (i.e. final LPS concentration of 1 μg/ml) and the cells cultured for 24 hours.
(§2) Substances were tested in a concentration range from 0.2 to 50 μM in two-fold dilution steps. Extracts were tested from 0.2 to 50 mg/L. All treatments were done in duplicates and several experimental series were done for each treatment. Concentrations of nitrite which was rapidly formed from nitric oxide released by cells were determined by the Griess reaction using sodium nitrite as standard. Briefly, 50 μl of supernatant was mixed with Griess reagent 1 (25 μL) and Griess reagent 2 (25 μL), centrifuged and the optical density at 540 nm determined. PGE2 secreted into the cell culture medium was determined by EIA obtained from Cayman Chemicals (Ann Harbor, […]., USA) and used according to the manufacturer's instructions. All determinations were done in duplicates and at various dilutions of the culture supernatant. IC50 values were calculated using a […] least-square fitting equation [y=A+((B−A)/(1+((C−x)̂D))] for best-fit curves (Excel fit software program).
Background: Griess reagent forms a coloured azo dye with nitrite.

For test [2] the test system is unchanged. As to the kind of experiment: Inhibition of PGE2 production in LPS-stimulated macrophages (EIA). The following applies: single substances, RAW267.4 cells, LPS 1 μg/ml, 24 hours. The method, then:
as §1, §2

The test system of the next test is TNF-α. Briefly: Expression of inflammatory genes by quantitative RT-PCR: TNF-α. The following applies: RAW 264.7 cells, 4 hours. Here is the method:
(§3) The effect of the compounds has been evaluated on the level of the expression of genes that are involved in the inflammatory response. These comprise e.g. the following genes TNF-α, IL-6, MIP1β and NF-κB1 and NF-κBp49, the latter two of which are transcription factors involved in the regulation of inflammatory gene expression. After 4 hours, RNA was extracted and the expression of genes determined by quantitative RT-PCR as described (Richard, N., Porath, D., Radspieler, A. and Schwager, J. Effects of resveratrol, piceatannol, tri-acetoxystilbene, and genistein on the inflammatory response of human peripheral blood leukocytes. Mol Nutr Food Res 2005. 49: 431-442).

Another test deals with IL-6. Briefly: Expression of inflammatory genes by quantitative RT-PCR: IL-6. The following applies: RAW 264.7 cells, 4 hours. Here is the method:
as §3

Test [3] has as its system macrophage inflammatory protein 1 [MIP-1]. Briefly: Expression of inflammatory genes by quantitative RT-PCR: MIP-1. The conditions noted are these: RAW 264.7 cells, 4 hours. Here is the method: as §3
Another test has as its system NF-κB1. Briefly: Expression of inflammatory genes by quantitative RT-PCR: NF-κB1. The conditions noted are these: RAW 264.7 cells, 4 hours. The method, then:
as §3

The subject of the next test is NF-κBp49. As to the kind of experiment: Expression of inflammatory genes by quantitative RT-PCR: NF-κBp49. The conditions noted are these: RAW 264.7 cells, 4 hours. Here is the method:
as §3

On to `CCC/C=C\C/C=C\CCCCCCCc1cccc(O)c1C(=O)O` [(15:2)-Anacardic acid], for which the IC50 in test [1] worked out at 82.4 ± 6.7 µM; in test [2] it was 43.1 ± 5.5 µM.
As for `C=CC/C=C\C/C=C\CCCCCCCc1cccc(O)c1C(=O)O` [(15:3)-Anacardic acid], the IC50 in test [1] came to 7.4 ± 0.4 µM; in test [2], 26.6 ± 21.1 µM. The “% expression TNF-α mRNA relative to cells stimulated with LPS only” value in the test on TNF-α (6.25 μM/L) is recorded as 76%; in the test with TNF-α (12.5 μM/L) it was 54%. Further, the “Effect on TNF-α expression (in words)” value with TNF-α is “significantly reduced”. The “% expression IL-6 mRNA relative to cells stimulated with LPS only” value is 65% with IL-6 (6.25 μM/L) and 71% in the test on IL-6 (12.5 μM/L). Further, the “% expression MIP-1-α mRNA relative to cells stimulated with LPS only” value was 58% in test [3] (6.25 μM/L) and 41% in test [3] (12.5 μM/L). Further, in test [3], the “Effect on MIP-1β expression (in words)” value is listed as “significantly reduced”. Besides, the results for the “% expression NF-κB1 mRNA relative to cells stimulated with LPS only” value in the test with NF-κB1 (6.25 μM/L) and in the test with NF-κB1 (12.5 μM/L) were 86% and 78%, respectively. Further, the “% expression NF-κBp49 mRNA relative to cells stimulated with LPS only” value in the test on NF-κBp49 (6.25 μM/L) amounted to 74%; with NF-κBp49 (12.5 μM/L) it was 57%.
As for `C=CC/C=C\C/C=C\CCCCCCCc1cc(O)cc(O)c1` [Cardoltriene], the values for the IC50 in test [1] and in test [2] were 4.9 ± 0.8 µM and 0.9 ± 0.2 µM, respectively.
The like results for `O=C(O[C@@H]1Cc2c(O)cc(O)cc2O[C@@H]1c1cc(O)c(O)c(O)c1)c1cc(O)c(O)c(O)c1` [EGCG, reference compound] were, in that order, 33 ± 2 µM and 35 µM.
For the compound `CCCCCC/C=C\CCCCCCCc1cccc(O)c1C(=O)O` [Ginkoic acid, Ginkgoic acid], the results for the concentration for half-maximal inhibition (IC50) in test [1] and in test [2] were greater than 100 µM and 57.8 µM, respectively.
As to `Oc1ccc(C=Cc2cc(O)cc(O)c2)cc1` [Resveratrol, reference compound], the values for the IC50 in test [1] (Mus musculus) and in test [2] (Mus musculus) were 31 ± 2 µM and 24 ± 2 µM, respectively.
